PMC8163982, “Partial agonism improves the anti-hyperglycaemic efficacy of an oxyntomodulin-derived GLP-1R/GCGR co-agonist” (Molecular Metabolism, 2021)
Where a SMILES comes first, the peptide text is derived from it. [ ]: non-standard residue; d: D form. Aib = CC(C)(N)C(=O)O

Key:
Assay type in all cases: cell-based
GCGR [1] = target: T1, GCGR (Homo sapiens, UniProt P47871); assay: cAMP production (HTRF) in PathHunter CHO-K1 cells expressing GCGR; design: expressed in transfected cells; conditions: 30 min, mean ± SEM, n = 6; for EC50: 37 °C, serum-free medium, no phosphodiesterase inhibitors, read-out: GCGR CAMP (CHO–K1) pEC50 (converted); for Emax: CHO-K1, normalised to globally fitted maximum response
T1 sequence (P47871 26-477): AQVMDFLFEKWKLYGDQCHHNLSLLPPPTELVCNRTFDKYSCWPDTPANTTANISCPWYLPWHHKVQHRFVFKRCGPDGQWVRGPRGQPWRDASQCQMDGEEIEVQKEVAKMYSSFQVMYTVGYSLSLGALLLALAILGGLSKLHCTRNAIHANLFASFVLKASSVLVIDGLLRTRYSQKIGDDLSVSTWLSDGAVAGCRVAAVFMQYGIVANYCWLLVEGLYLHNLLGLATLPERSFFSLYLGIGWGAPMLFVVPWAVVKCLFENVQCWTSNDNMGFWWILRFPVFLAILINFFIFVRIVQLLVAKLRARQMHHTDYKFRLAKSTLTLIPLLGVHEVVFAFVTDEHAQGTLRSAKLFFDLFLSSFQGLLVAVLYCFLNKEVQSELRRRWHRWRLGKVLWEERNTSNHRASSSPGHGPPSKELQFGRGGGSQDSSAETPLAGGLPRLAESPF
Method: (§1) HEK293T cells were maintained in DMEM supplemented with 10% FBS and 1% penicillin/streptomycin. PathHunter CHO–K1-βarr2-EA cells stably expressing human GLP-1R, GCGR, or GIPR and PathHunter CHO–K1-βarr1-EA cells stably expressing GCGR were obtained from DiscoverX and maintained in Ham's F12 medium with 10% FBS and 1% penicillin/streptomycin. Stable HEK293-SNAP-GLP-1R cells were maintained in DMEM supplemented with 10% FBS, 1% penicillin/streptomycin, and 1 mg/ml of G418. INS-1 832/3 cells, a gift from Professor Chris Newgard (Duke University), were maintained in RPMI with 11 mM of glucose supplemented with 10% FBS, 10 mM of HEPES, 1 mM of pyruvate, 50 μM of β-mercaptoethanol, and 1% penicillin/streptomycin. Huh7 cells stably expressing human GCGR (Huh7-GCGR) were maintained in DMEM supplemented with 10% FBS, 1 mg/ml of G418, and 1% penicillin/streptomycin.
(§2) PathHunter cells were stimulated with the indicated concentration of agonist for 30 min at 37 °C in serum-free medium without phosphodiesterase inhibitors. INS-1 832/3 cells were stimulated with the indicated concentration of agonist for 10 min at 37 °C in serum-free medium with 100 μM of 3-isobutyl-1-methylxanthine (IBMX). Primary dispersed mouse islet cells prepared by triturating intact islets in 0.05% trypsin/EDTA for 3 min at 37 °C were stimulated with the indicated concentration of agonist for 5 min at 37 °C in serum-free medium with 11 mM of glucose and 500 μM of IBMX. Primary mouse hepatocytes were stimulated in serum-free medium with 100 μM of IBMX for 10 min or 16 h in serum-free medium with 100 μM of IBMX added for the final 10 min of incubation. Huh7-GCGR cells were stimulated in serum-free medium without phosphodiesterase inhibitors for 10 min or for 16 h in serum-free medium. Where relevant, forskolin (10 μM) was added as a positive or normalisation control. At the end of each incubation, cAMP was then assayed by HTRF (Cisbio cAMP Dynamic 2) and concentration-response curves were constructed with 3-parameter curve fitting using Prism 8.0.

human GIPR = target: T2, human GIPR (Homo sapiens, UniProt P48546); assay: cAMP production (HTRF) in PathHunter CHO-K1 cells expressing GIPR; conditions: 30 min, mean ± SEM, n = 6; for EC50: 37 °C, serum-free medium, no phosphodiesterase inhibitors, read-out: GIPR CAMP (CHO–K1) pEC50 (converted); for Emax: CHO-K1, normalised to globally fitted maximum response
T2 construct: host or cells: PathHunter CHO-K1-βarr2-EA
T2 sequence (P48546 22-466): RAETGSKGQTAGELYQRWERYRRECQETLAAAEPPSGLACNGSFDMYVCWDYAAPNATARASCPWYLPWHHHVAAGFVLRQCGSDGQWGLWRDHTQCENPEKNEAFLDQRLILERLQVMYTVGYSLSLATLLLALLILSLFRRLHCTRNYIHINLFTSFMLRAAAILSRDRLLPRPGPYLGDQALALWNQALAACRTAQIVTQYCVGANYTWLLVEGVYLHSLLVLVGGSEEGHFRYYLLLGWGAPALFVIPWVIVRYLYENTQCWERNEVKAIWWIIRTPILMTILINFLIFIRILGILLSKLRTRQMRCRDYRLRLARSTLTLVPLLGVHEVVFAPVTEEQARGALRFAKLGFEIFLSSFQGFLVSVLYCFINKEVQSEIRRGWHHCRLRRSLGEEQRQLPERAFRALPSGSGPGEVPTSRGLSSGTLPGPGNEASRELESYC
Method: as §1, §2

[2] = test system: primary mouse hepatocytes; assay: cAMP accumulation in primary mouse hepatocytes; conditions: expressed relative to 10 μM forskolin response, mean ± SEM, n = 4; for cAMP 10 min (primary hepatocytes) Emax: 100 μM IBMX; for cAMP 16 h (primary hepatocytes) Emax: 100 μM IBMX for final 10 min
Method: Hepatocytes from adult male C57Bl/6J mice were isolated using collagenase perfusion. After filtering and washing, the cells were used to directly assay cAMP responses as described in the next section.
as §2

SNAP-GLP-1R = target: T3, SNAP-GLP-1R (Homo sapiens, UniProt P43220); assay: GLP-1R internalisation by DERET in HEK293-SNAP-GLP-1R cells; conditions: average response of last 3 time points of 30 min, mean ± SEM, n = 5, read-out: DERET (HEK293-SNAP-GLP-1R) pEC50 (converted)
T3 construct: expressed in transfected cells
T3 sequence (P43220 24-463): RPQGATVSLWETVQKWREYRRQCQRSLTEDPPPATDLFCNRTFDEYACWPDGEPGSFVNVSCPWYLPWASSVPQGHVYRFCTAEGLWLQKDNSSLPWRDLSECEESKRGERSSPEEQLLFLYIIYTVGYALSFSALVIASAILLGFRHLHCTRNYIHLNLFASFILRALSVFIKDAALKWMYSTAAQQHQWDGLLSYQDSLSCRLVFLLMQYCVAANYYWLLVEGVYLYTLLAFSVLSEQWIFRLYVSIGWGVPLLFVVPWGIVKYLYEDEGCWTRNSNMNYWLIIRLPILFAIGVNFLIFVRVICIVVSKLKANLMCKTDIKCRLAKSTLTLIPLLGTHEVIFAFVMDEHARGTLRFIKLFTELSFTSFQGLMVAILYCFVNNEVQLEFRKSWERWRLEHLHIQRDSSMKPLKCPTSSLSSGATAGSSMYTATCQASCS
Method: The assay was performed as previously described. HEK-SNAP-GLP-1R cells were labelled using 40 nM of SNAP-Lumi4-Tb in complete medium for 60 min at room temperature. After washing, the cells were resuspended in HBSS containing 24 μM of fluorescein and dispensed into 96-well white plates. A baseline read was serially recorded for 5 min using a FlexStation 3 instrument at 37 °C in TR-FRET mode using the following settings: λex at 340 nm, λem at 520 and 620 nm, auto cut-off, delay of 400 μs, and integration time of 1500 μs? Ligands were then added, after which the signals were repeatedly recorded for 30 min. The fluorescence signals were expressed ratiometrically after first subtracting signals from wells containing 24 μM of fluorescein but no cells. Internalisation was quantified as the AUC relative to the individual well baseline, and concentration-response curves were generated with Prism 8.0.

GCGR [3] = target: T1, GCGR; assay: NanoBiT mini-Gs recruitment to GCGR-SmBiT in HEK293T cells; design: expressed in transfected cells; host or cells: HEK293T; conditions: SRB103 pair, mean ± SEM, n = 6; for Emax: HEK-293T, normalised to full agonist response, read-out: GCGR mini-Gs (HEK293T) Emax; for EC50: 3-parameter fit, read-out: GCGR mini-Gs (HEK293T) pEC50 (converted)

| SMILES | EC50 (GCGR [1]) [µM] | Emax (GCGR [1]) [%] | EC50 (human GIPR) [µM] | Emax (human GIPR) [%] | cAMP 10 min (primary hepatocytes) Emax [2] | cAMP 16 h (primary hepatocytes) Emax [2] | EC50 (SNAP-GLP-1R) [µM] | Emax (GCGR [3]) [%] | EC50 (GCGR [3]) [µM] |
| --- | --- | --- | --- | --- | --- | --- | --- | --- | --- |
| CC[C@H](C)[C@H](NC(=O)[C@H](Cc1ccccc1)NC(=O)[C@H](CCC(=O)O)NC(=O)[C@H](CCC(N)=O)NC(=O)[C@H](C)NC(=O)[C@H](CCCNC(=N)N)NC(=O)[C@H](CCCCN)NC(=O)[C@H](C)NC(=O)[C@H](CC(=O)O)NC(=O)[C@H](CC(C)C)NC(=O)[C@H](Cc1ccc(O)cc1)NC(=O)[C@H](CCCCN)NC(=O)[C@H](CO)NC(=O)[C@H](Cc1ccc(O)cc1)NC(=O)[C@H](CC(=O)O)NC(=O)[C@H](CO)NC(=O)[C@@H](NC(=O)[C@H](Cc1ccccc1)NC(=O)[C@@H](NC(=O)CNC(=O)[C@H](Cc1c[nH]cn1)NC(=O)C(C)(C)NC(=O)[C@@H](N)Cc1c[nH]cn1)[C@@H](C)O)[C@@H](C)O)C(=O)N[C@@H](CCC(=O)O)C(=O)N[C@@H](Cc1c[nH]c2ccccc12)C(=O)N[C@@H](CC(C)C)C(=O)N[C@@H](CC(C)C)C(=O)N[C@@H](C)C(=O)NCC(=O)N[C@@H](Cc1c[nH]cn1)C(=O)N[C@@H](Cc1c[nH]cn1)C(=O)N[C@@H](Cc1c[nH]cn1)C(=O)N[C@@H](Cc1c[nH]cn1)C(=O)N[C@@H](Cc1c[nH]cn1)C(=O)N1CCC[C@H]1C(=O)N[C@@H](CO)C(=O)N[C@@H](Cc1c[nH]c2ccccc12)C(=O)O [SRB103H] (H-H[Aib]HGTFTSDYSKYLDAKRAQEFIEWLLAGHHHHHPSW-OH) | 0.000251 | 107 ± 5 | 0.0251 | 101 ± 5 | 170 ± 7 | 206 ± 7 | 0.02 | 100 | 0.00794 |
| CC[C@H](C)[C@H](NC(=O)[C@H](Cc1ccccc1)NC(=O)[C@H](CCC(=O)O)NC(=O)[C@H](CCC(N)=O)NC(=O)[C@H](C)NC(=O)[C@H](CCCNC(=N)N)NC(=O)[C@H](CCCCN)NC(=O)[C@H](C)NC(=O)[C@H](CC(=O)O)NC(=O)[C@H](CC(C)C)NC(=O)[C@H](Cc1ccc(O)cc1)NC(=O)[C@H](CCCCN)NC(=O)[C@H](CO)NC(=O)[C@H](Cc1ccc(O)cc1)NC(=O)[C@H](CC(=O)O)NC(=O)[C@H](CO)NC(=O)[C@@H](NC(=O)[C@H](Cc1ccccc1)NC(=O)[C@@H](NC(=O)CNC(=O)[C@H](CCC(N)=O)NC(=O)C(C)(C)NC(=O)[C@@H](N)Cc1c[nH]cn1)[C@@H](C)O)[C@@H](C)O)C(=O)N[C@@H](CCC(=O)O)C(=O)N[C@@H](Cc1c[nH]c2ccccc12)C(=O)N[C@@H](CC(C)C)C(=O)N[C@@H](CC(C)C)C(=O)N[C@@H](C)C(=O)NCC(=O)N[C@@H](Cc1c[nH]cn1)C(=O)N[C@@H](Cc1c[nH]cn1)C(=O)N[C@@H](Cc1c[nH]cn1)C(=O)N[C@@H](Cc1c[nH]cn1)C(=O)N[C@@H](Cc1c[nH]cn1)C(=O)N1CCC[C@H]1C(=O)N[C@@H](CO)C(=O)N[C@@H](Cc1c[nH]c2ccccc12)C(=O)O [SRB103Q] (H-H[Aib]QGTFTSDYSKYLDAKRAQEFIEWLLAGHHHHHPSW-OH) | 0.000398 | 103 ± 4 | 0.1 | 92 ± 9 | 175 ± 12 | 200 ± 6 | 0.02 | 83 ± 1 | 0.02 |
